Structures are written as SMILES.

Consider twelve compounds from PMC8177068, “Secondary (iso)BAs cooperate with endogenous ligands to activate FXR under physiological and pathological conditions” (Biochimica et biophysica acta. Molecular basis of disease, 2021).

Data set [1] has as its system FXR target genes (Ostb, Kng1). Put plainly: FXR target gene mRNA/pre-mRNA expression in HepG2 cells (qRT-PCR). The settings on record: 6 h. It counts as cell-based, human. The method, then:
(§1) RNA was extracted from cells or snap-frozen tissue samples (approximately 50 mg) using Trizol according to the manufacturer’s instructions and as described previously in detail. Liver samples were homogenized before extraction in a MagNA Lyser at 6500 rpm for 2 × 20 s intervals. Concentration and quality (absorbance 260/280 & […] ratios) of RNA was measured on a NanoDrop™ 2000 spectrophotometer. Isolated RNA was reverse-transcribed by using the SuperScript II cDNA synthesis enzyme according to the manufacturer’s instructions. Primers used for RT-qPCR were designed using the open-source program Primer3. Primers were designed to span exon-intron boundaries with an amplicon size of less than 150 bp. Relative changes were calculated using a standard curve and 36b4 as the reference genes.
Fig. 1.
For orientation: In qPCR the cycle at which signal appears reflects the starting amount.

The nature of data set [2]: Metabolism of isoBAs in HepG2 cells (LC-MS). Type of data set: in vitro ADME, human. The conditions noted are these: 4 h. On the procedure:
The protocol has been published in detail previously. Briefly, internal standards were added to cells in 12-well plates and cells were lysed in methanol. The debris was pelleted, the supernatant dried and dissolved in running buffer. BAs were separated by HPLC using a C18 reversed phase or pentafluorophenyl column prior to quantification by mass spectrometry.
Having established suitable analytical methods, we focused on the metabolism of isoBAs and their 3-alpha-epimers in vitro, using conditions similar to our cell-based FXR assays. […] This may indicate that the presence of the 12-hydroxy group prevents further metabolism into 3α-BAs. It was also observed that a very small amount of 3α-OH BAs were converted to 3-keto intermediates (Fig. 2B, C).
Fig. 2. IsoBAs are metabolized into (3-keto/oxo) derivatives and are partially re-epimerized into 3-alpha hydroxy BAs. HepG2 cells were incubated with (A) isoBAs or (B) their 3-alpha-epimers for 4 h. BAs were measured on C-18 column by LC/MS. Upper panel BAs and isoBAs; lower panel keto/oxo derivatives after incubation. Chromatograms of isoBA-standards are shown in Supplementary Fig. 3A. (C) Merged chromatograms of (A) & (B). […] (*) conversion of isoBAs into 3-alpha hydroxy BAs. (m/z) mass divided by charge number.

A further data set relates to human ASBT. Set-up: method as in PMID 24328955. The conditions noted are these: cited from earlier work.
The test system of another data set is hepatic Cyp7a1. Put plainly: BA-enriched diet in mice: hepatic BA synthesis gene expression. Type of data set: in vivo, mouse. The conditions noted are these: for Cyp7a1 levels in the liver: C57BL/6 J mice, 0.5% (w/w) chow diet. The method, then: as §1
(§2) All animals were housed with a 12-h light-dark cycle in humidity and temperature-controlled conditions and permitted ad libitum consumption of water and a standard mouse diet (Altromin 1324, Lage, Germany). All the experiments were approved by the European Directive 2010/63/EU and approved by the Austrian Federal Ministry of Education, Science and Research (Vienna, Austria; BMWFW-66.010/0124-V/3b/2018, BMWFW-66.010/0129-WF/V/3b/2016, and the Institutional Animal Care and Use Committees at Emory University and were in conformity with the Austrian/US animal law. The Ostα^−/−, Asbt^−/−, Ostα-Asbt DKO (double knockout) and Fxr^−/−mice were generated as previously described. Experiments were performed in 8–12 weeks-old mice. Mice were fed a chow diet (Altromin 1324, Lage, Germany); for BA supplementation experiments, male mice were fed 0.5% (w/w) diet of the indicated BA for the indicated time. CBDL was performed as described previously. Mice were euthanized by decapitation and tissues including liver and intestine were immediately dissected, weighed and frozen in liquid nitrogen for subsequent molecular analysis or preserved for histological analysis.
Fig. 6. Regulation of FXR target genes in vivo after treatment with unconjugated and conjugated bile acids.
Fig. 7.

Data set [3] deals with T1, FXR ligand binding domain (NucleoBAS) (Homo sapiens, UniProt Q96RI1).
T1 construct: nuclear localisation (sensor targeted to the nucleus; signal not described); expressed in transfected cells; host or cells: U2OS cells stably expressing NucleoBAS (PEI transfection, colony selection); some experiments with co-expressed NTCP-mKate2
T1 sequence (Q96RI1 262-486 limits assumed): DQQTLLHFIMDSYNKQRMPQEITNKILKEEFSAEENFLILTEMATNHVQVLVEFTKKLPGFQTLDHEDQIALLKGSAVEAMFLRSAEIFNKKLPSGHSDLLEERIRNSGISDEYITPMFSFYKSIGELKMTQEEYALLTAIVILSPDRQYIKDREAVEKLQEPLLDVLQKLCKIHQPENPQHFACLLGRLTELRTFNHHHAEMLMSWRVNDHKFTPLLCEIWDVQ
Kind of data set: Confocal FRET bile acid sensor (NucleoBAS) in U2OS cells. It counts as cell-based. The settings on record: NTCP-NucleoBAS cells in CFBS. The text has this:
Fig. 3.
Fig. 4. […] Error bars represent the SEM.
(§3) (1 picture or pasted object on this page, not shown here)

The next data set has as its system intestinal Fgf15. Kind of data set: BA-enriched diet in mice: intestinal FXR target gene expression. It counts as in vivo, mouse. The conditions noted are these: C57BL/6 J mice, 0.5% (w/w) chow diet. On the procedure: as §1
Fig. 6.

Another data set concerns FXR target genes. Put plainly: Single dose gavage of (iso)BAs followed by GW4064 in mice, FXR target genes. It counts as in vivo, mouse. The settings on record: 60 mg/kg BW followed by GW4064 30 mg/kg BW, 6 h.
Excerpt: as §2
Fig. 5. […] Genes were analyzed 6 h after gavage; n = 3–4, values represent the mean ± SEM. *p < 0.05; #p < 0.01.
Supplementary Figure 5. […]
Genes were analyzed 6 hours after gavage; n=3-4, values […]

Details of data set [4]: method as in PMID 9126801, PMID 11352980. The conditions noted are these: pilot studies; cited from earlier work.
The next data set has as its system Bsep. Put plainly: Hepatic Bsep pre-mRNA and mRNA in animals treated with GSK2324. Type of data set: in vivo. The conditions noted are these: animals treated with GSK2324, liver. On the procedure:
Supplementary Figure 2. (A) Hepatic expression of bile acid transport (Bsep) and BA-synthesis gene (Cyp7a1) pre-mRNA and mRNA after treatment with either vehicle or the synthetic FXR agonist GSK2324 for 30 minutes (n = 7-8), 1 hour (n = 8), or 2 hours (n = 7-8) before sacrifice; values represent the mean ± SEM. *p<0.05, #p<0.01. Effect of the synthetic FXR ligand (GW4064) and isoBAs (isoCDCA, isoDCA, isoUDCA) on mRNA (B) and pre-mRNA (C) levels of Ostb, Kng1, Shp in HepG2 cells treated over time; n=3. Values represent the mean ± SEM.
as §3

As to `C[C@H](CCC(=O)O)[C@H]1CC[C@H]2[C@@H]3[C@H](O)C[C@@H]4C[C@@H](O)CC[C@]4(C)[C@H]3CC[C@]12C` [isoCDCA], in data set [1], the “induction of Ostβ and Kng1 mRNA” value is reported as “significant induction”; the “induction of Ostβ and Kng1 pre-mRNAs” value is on record as “robustly induced”. In addition, the “re-epimerization (conversion) into the 3α-stereoisomer” value (“re-epimerization” for short) in data set [2] is listed as “observed”.

Consider `C[C@H](CCC(=O)O)[C@H]1CC[C@H]2[C@@H]3[C@@H](O)C[C@@H]4C[C@H](O)CC[C@]4(C)[C@H]3CC[C@]12C` [UDCA, ursodeoxycholic acid], for which the “affinity for human ASBT compared to native BAs” value in the data set on human ASBT is on record as “identical binding affinities”. For the same compound, the “Cyp7a1 levels in the liver” value in the data set with hepatic Cyp7a1 is on record as “repressed”. In addition, in the data set on hepatic Cyp7a1 (CBDL mice, 0.5% (w/w) diet 7 days), the “effect on liver Cyp7a1 mRNA expression” value is reported as “inhibited”. Further, the “repression of Cyp7a1 mRNA levels” value in the data set with hepatic Cyp7a1 (CBDL-Fxr KO mice) was “not”; in the data set with hepatic Cyp7a1 (CBDL-WT mice) it was “repress”.

`C[C@H](CCC(=O)O)[C@H]1CC[C@H]2[C@@H]3CC[C@@H]4C[C@H](O)CC[C@]4(C)[C@H]3CC[C@]12C` [LCA, lithocholic acid, reference compound]: the “induction of Ostβ and Kng1 pre-mRNAs” value in [1] is “not”.

Regarding `CC(CCC(=O)NCC(=O)O)C1CCC2C3C(O)CC4CC(O)CCC4(C)C3CCC12C` (centres unmarked) [GCDCA, glycochenodeoxycholic acid, reference compound], in data set [3] (10 μM GCDCA), the “change in FRET” value is recorded as “markedly increased FRET”.

Turning to `C[C@H](CCC(=O)NCCS(=O)(=O)O)[C@H]1CC[C@H]2[C@@H]3[C@@H](O)C[C@@H]4C[C@H](O)CC[C@]4(C)[C@H]3CC[C@]12C` [TUDCA, tauroursodeoxycholic], the “expression of pre-mRNA over mRNA as compared to CA and TCA” value in the data set with intestinal Fgf15 is recorded as “more strongly enhanced”.

In the case of `C[C@H](CCC(=O)O)[C@H]1CC[C@H]2[C@@H]3[C@@H](O)C[C@@H]4C[C@@H](O)CC[C@]4(C)[C@H]3CC[C@]12C` [isoUDCA], in data set [1], the “induction of Ostβ and Kng1 mRNA” value was “barely induced”; the “induction of Ostβ and Kng1 pre-mRNAs” value is “not”. Moreover, in the data set with FXR target genes, the “repression of Cyp7a1 in the liver compared to UDCA” value is “even better”. Moreover, in [2], the “re-epimerization” value is reported as “observed”. For the same compound, the “affinity for human ASBT compared to native BAs” value in the data set with human ASBT was “identical binding affinities”. In addition, in data set [4], the tolerability entry was “well tolerated without any side effects”.

Turning to `CC(C)c1onc(-c2c(Cl)cccc2Cl)c1COc1ccc(-c2ccc3nc(C(=O)O)ccc3c2)cc1` [GSK2324], the “Bsep pre-mRNA induction over the mature Bsep mRNA” value in the data set with Bsep is ~ 20 fold.

In the case of `C[C@H](CCC(=O)O)[C@H]1CC[C@H]2[C@@H]3[C@H](O)C[C@@H]4C[C@@H](O)CC[C@]4(C)[C@H]3C[C@H](O)[C@]12C` [isoCA], in data set [1], the “induction of Ostβ and Kng1 pre-mRNAs” value is on record as “not”. In addition, the “re-epimerization” value in [2] is on record as “did not observe re-epimerization”.

Turning to `C[C@H](CCC(=O)O)[C@H]1CC[C@H]2[C@@H]3CC[C@@H]4C[C@@H](O)CC[C@]4(C)[C@H]3C[C@H](O)[C@]12C` [isoDCA, (5β, 3β, 12α) -dihydroxy-cholan-24-oic acid], the “change in FRET signal induced by GCDCA” value in data set [3] (100 μM isoBA at t = 240 s after 10 μM GCDCA) is given as “reduced the FRET signal”. Besides, in data set [1], the “induction of Ostβ and Kng1 mRNA” value is “barely induced”; the “induction of Ostβ and Kng1 pre-mRNAs” value is “robustly induced”. In addition, in data set [2], the “re-epimerization” value was “did not observe re-epimerization”.

As for `C[C@H](CCC(=O)O)[C@H]1CC[C@H]2[C@@H]3CC[C@@H]4C[C@@H](O)CC[C@]4(C)[C@H]3CC[C@]12C` [isoLCA], the “induction of Ostβ and Kng1 pre-mRNAs” value in [1] is recorded as “not”.

On to `C[C@H](CCC(=O)O)[C@H]1CC[C@H]2[C@@H]3[C@H](O)C[C@@H]4C[C@H](O)CC[C@]4(C)[C@H]3C[C@H](O)[C@]12C` [CA, cholic acid], for which, in the data set on intestinal Fgf15, the “Fgf15 and Ibabp expression in the intestine” value is given as “increased”. Further, the “induction of Ostβ and Kng1 pre-mRNAs” value in data set [1] was “not”. Also, in the data set on hepatic Cyp7a1, the “Cyp7a1 levels in the liver” value was “repressed”.

On to `C[C@H](CCC(=O)O)[C@H]1CC[C@H]2[C@@H]3CC[C@@H]4C[C@H](O)CC[C@]4(C)[C@H]3C[C@H](O)[C@]12C` [DCA, deoxycholic acid, reference compound], for which the “induction of Ostβ and Kng1 pre-mRNAs” value in data set [1] was “robustly induced”.
